In PubChem BioAssay (NCI):
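Each compound was tested at five concentrations against cells in 96-well plates for 48 hours. TGI: total growth inhibition.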 *1 amine or outer side, *2 acyl side, *3 side chain or, on linkers, in order; H or OH if unused. Where a SMILES comes first, the peptide text is derived from it. [ ]: non-standard residue; d: D form. The star is where a group is joined. ξ: configuration not given here. X27 = O=C([C@H]1CCC[C@H]1N[*:1])[*:2]; ξW = NC(Cc1c[nH]c2ccccc12)C(=O)O; ξF = NC(Cc1ccccc1)C(=O)O; Boc = CC(C)(C)OC(=O)*; ξK = NCCCCC(N)C(=O)O; ξT = CC(O)C(N)C(=O)O; tBu = CC(C)(C)*

Assays:
Assay in all cases: inhibition of tumour cell growth, NCI panel, 48 h
MDA-N = test system: MDA-N
K-562 leukemia = test system: K-562 leukemia
HL-60(TB) leukemia = test system: HL-60(TB) leukemia
HCT-15 colon = test system: HCT-15 colon
M14 melanoma = test system: M14 melanoma
SK-OV-3 ovarian = test system: SK-OV-3 ovarian
EKVX NSCLC = test system: EKVX NSCLC
SN12C renal = test system: SN12C renal
NCI/ADR-RES ovarian = test system: NCI/ADR-RES ovarian
SF-268 CNS = test system: SF-268 CNS
DU-145 prostate = test system: DU-145 prostate
CCRF-CEM leukemia = test system: CCRF-CEM leukemia
LOX IMVI melanoma = test system: LOX IMVI melanoma
TK-10 renal = test system: TK-10 renal
OVCAR-5 ovarian = test system: OVCAR-5 ovarian
U251 CNS = test system: U251 CNS
COLO 205 colon = test system: COLO 205 colon
A498 renal = test system: A498 renal
HCC-2998 colon = test system: HCC-2998 colon
SK-MEL-2 melanoma = test system: SK-MEL-2 melanoma

Row | SMILES | TGI (MDA-N) [µM] | TGI (K-562 leukemia) [µM] | TGI (HL-60(TB) leukemia) [µM] | TGI (HCT-15 colon) [µM] | TGI (M14 melanoma) [µM] | TGI (SK-OV-3 ovarian) [µM] | TGI (EKVX NSCLC) [µM] | TGI (SN12C renal) [µM] | TGI (NCI/ADR-RES ovarian) [µM] | TGI (SF-268 CNS) [µM] | TGI (DU-145 prostate) [µM] | TGI (CCRF-CEM leukemia) [µM] | TGI (LOX IMVI melanoma) [µM] | TGI (TK-10 renal) [µM] | TGI (OVCAR-5 ovarian) [µM] | TGI (U251 CNS) [µM] | TGI (COLO 205 colon) [µM] | TGI (A498 renal) [µM] | TGI (HCC-2998 colon) [µM] | TGI (SK-MEL-2 melanoma) [µM]
1 | C[Si](C)(C)C#Cc1cc(-c2nc3ccccc3s2)ccc1N | 33.7 | 70.6 | 50 | 32.1 | 31 | 41.9 | 25.7 | 30.1 | 32.3 | 32.1 | 62.1 | 59.4 | 34 | 26.2 | 33.5 | 37.9 | 29.5 | 35 | – | –
2 | Cc1c2ccnc(C(=O)NCCN(C)C)c2cc2c3cc(O)ccc3n(C)c12 | 1.93 | 2.4 | 0.532 | 4.39 | 1.47 | 1.65 | 5.18 | 2.15 | 6.64 | 2.28 | 0.771 | 0.24 | 1.26 | 9.05 | 6.29 | 2.43 | 4.01 | – | 2.11 | 1.7
3 | CCOC(=O)CCC(NC(=O)Cc1ccc(Nc2nc3ccccc3nc2-c2cccs2)cc1)C(=O)OCC (stereo unspecified) | > 100 | > 100 | > 100 | > 100 | > 100 | > 100 | > 100 | > 100 | > 100 | > 100 | > 100 | > 100 | – | 84.5 | > 100 | > 100 | > 100 | > 100 | > 100 | > 100
4 | Clc1ccc(Nc2nnc(CCCCCCCCc3nnc(Nc4ccc(Cl)cc4)o3)o2)cc1 | > 100 | > 100 | – | > 100 | > 100 | > 100 | > 100 | > 100 | > 100 | – | > 100 | – | – | > 100 | > 100 | > 100 | > 100 | > 100 | > 100 | > 100
5 | CC(=O)OCC(OC(C)=O)C(OC(C)=O)C(/C=N\Nc1nc2ccccc2c(=O)[nH]1)=N\Nc1nc2ccccc2c(=O)[nH]1 (stereo unspecified) | > 100 | > 100 | > 100 | > 100 | > 100 | > 100 | > 100 | > 100 | > 100 | > 100 | > 100 | > 100 | > 100 | – | > 100 | > 100 | > 100 | – | 36.3 | > 100
6 | N#C[C@H](C(=O)c1ccccc1F)c1nc2ccccc2s1 | > 100 | > 100 | 79.2 | > 100 | > 100 | > 100 | > 100 | > 100 | > 100 | > 100 | > 100 | 73.9 | > 100 | > 100 | > 100 | > 100 | 53.8 | > 100 | – | 51.1
7 | OCc1cc2c(ccc3sc4ccc5sc6ccc7ncccc7c6c5c4c32)s1 | 23.9 | > 100 | 67.1 | 33.6 | – | 39.9 | 29.7 | 26.8 | 82.5 | – | 33.6 | > 100 | 26.6 | > 100 | 33 | > 100 | 21.3 | > 100 | – | 31.3
8 | CC1(C)CC(=O)C(/C=N/C(N)=S)=C(O)C1 | > 100 | – | > 100 | > 100 | > 100 | > 100 | > 100 | > 100 | > 100 | > 100 | > 100 | > 100 | > 100 | > 100 | > 100 | > 100 | > 100 | – | > 100 | > 100
9 | CCCC(=O)NC(Nc1cc(C)ccn1)(C(=O)OCC)C(F)(F)F (stereo unspecified) | > 100 | > 100 | > 100 | > 100 | > 100 | > 100 | > 100 | > 100 | > 100 | > 100 | > 100 | > 100 | > 100 | > 100 | > 100 | > 100 | > 100 | – | > 100 | > 100
10 | C1=NCCN2CCN(CCN=Cc3ccccc3OCc3cccc(n3)COc3ccccc31)CC2 | 2.72 | > 50 | 22.6 | 21.4 | > 50 | > 50 | > 50 | 26.3 | 17.2 | 21.1 | 35.7 | > 50 | – | 24.9 | 28.3 | 10.2 | > 50 | > 50 | – | > 50
11 | CC(OC(C)(C)C)C1NC(=O)C(CCCCNC(=O)OC(C)(C)C)NC(=O)C(Cc2c[nH]c3ccccc23)NC(=O)C(Cc2ccccc2)NC(=O)[C@H]2CCC[C@H]2NC(=O)C(Cc2ccccc2)NC1=O (stereo partly specified) (cyclo([X27][ξF][ξW][ξK](Boc)[ξT](tBu)[ξF])) | > 100 | > 100 | > 100 | > 100 | > 100 | > 100 | > 100 | 88.6 | > 100 | > 100 | > 100 | > 100 | > 100 | – | 59.8 | > 100 | > 100 | – | > 100 | 62.8
12 | O=c1[nH]nc(Cc2ccc(Cl)cc2)n1/N=C/c1ccco1 | > 100 | > 100 | > 100 | > 100 | > 100 | > 100 | > 100 | > 100 | > 100 | > 100 | > 100 | > 100 | – | – | > 100 | > 100 | > 100 | > 100 | > 100 | > 100
13 | Cn1c(NNc2ccccc2)cc(=O)[nH]c1=O | 45.4 | > 100 | > 100 | > 100 | > 100 | > 100 | > 100 | > 100 | > 100 | > 100 | > 100 | 53 | > 100 | > 100 | > 100 | > 100 | > 100 | – | 97.5 | > 100
